Measurements published in patent US20070118211A1, “Method for preparing drug eluting medical devices and devices obtained therefrom” (priority 2003, published 2007).

Assay: elution of the drug from coated stents in physiological solution (UV absorbance)
Assay type: physicochemical
Conditions: stent with allylamine polymer deposited by cold plasma compared with stent with polymer according to the state of the art (polybutadiene layers); 1 cc physiological solution; absorbance at 261 nm; FIG. 1
Experimental: Next, the stents were immersed in test tubes containing 1 cc of physiological solution and the rate of elution of the drug was measured by acquiring the visible UV spectrum using a Unicam 8700 spectrophotometer and reading off the absorbance at 261 nm. The correlation between absorbance and concentration was established by measuring the absorbance of solutions of known concentration (calibration curve). The drug elution measurements were carried out at fixed time intervals and the physiological solution was changed at each measurement.
10 mg of dexamethasone were dissolved in 1 cc of ethanol and applied as described previously. The elution curves were again measured as described in example 1 and the absorbance at 264.4 nm was read off.

elution of the hydrophilic drug: significantly delays the elution
Compound: CS(=O)(=O)O.Cc1ccc(NC(=O)c2ccc(CN3CCN(C)CC3)cc2)cc1Nc1nccc(-c2cccnc2)n1 [hydrophilic drug, 4-[(4-methyl-1-piperazinyl)methyl]-N-[4-methyl-3-[[4-(3-pyridinyl)-2-pyrimidinyl]amino]-phenyl]benzamide methanesulphonate]
